The record followed here is patent publication US20240254119A1 (THIRD HARMONIC BIO, INC., priority 2022, published 2024).

Each structure is given as a SMILES string.

The assay deals with T1, wtKIT (Homo sapiens, UniProt P10721).
T1 construct: 1888289AM in the reaction mixtures
The assay is described as follows: HTRF biochemical assay, wtKIT (phosphorylation of a peptide substrate). Conditions: Table 4. A digest of the protocol:
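wtKIT (5.0 nM) phosphorylating 1 µM FAM-labelled peptide with 400 µM ATP and 10 mM MnCl2 in 100 mM HEPES pH 7.5, 1% DMSO, 3 h at 25 °C. EDTA quench; phosphopeptide detected with anti-phosphotyrosine antibody by HTRF. Enzyme titrated for 10-20% substrate conversion.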

T1 sequence (P10721 26-976): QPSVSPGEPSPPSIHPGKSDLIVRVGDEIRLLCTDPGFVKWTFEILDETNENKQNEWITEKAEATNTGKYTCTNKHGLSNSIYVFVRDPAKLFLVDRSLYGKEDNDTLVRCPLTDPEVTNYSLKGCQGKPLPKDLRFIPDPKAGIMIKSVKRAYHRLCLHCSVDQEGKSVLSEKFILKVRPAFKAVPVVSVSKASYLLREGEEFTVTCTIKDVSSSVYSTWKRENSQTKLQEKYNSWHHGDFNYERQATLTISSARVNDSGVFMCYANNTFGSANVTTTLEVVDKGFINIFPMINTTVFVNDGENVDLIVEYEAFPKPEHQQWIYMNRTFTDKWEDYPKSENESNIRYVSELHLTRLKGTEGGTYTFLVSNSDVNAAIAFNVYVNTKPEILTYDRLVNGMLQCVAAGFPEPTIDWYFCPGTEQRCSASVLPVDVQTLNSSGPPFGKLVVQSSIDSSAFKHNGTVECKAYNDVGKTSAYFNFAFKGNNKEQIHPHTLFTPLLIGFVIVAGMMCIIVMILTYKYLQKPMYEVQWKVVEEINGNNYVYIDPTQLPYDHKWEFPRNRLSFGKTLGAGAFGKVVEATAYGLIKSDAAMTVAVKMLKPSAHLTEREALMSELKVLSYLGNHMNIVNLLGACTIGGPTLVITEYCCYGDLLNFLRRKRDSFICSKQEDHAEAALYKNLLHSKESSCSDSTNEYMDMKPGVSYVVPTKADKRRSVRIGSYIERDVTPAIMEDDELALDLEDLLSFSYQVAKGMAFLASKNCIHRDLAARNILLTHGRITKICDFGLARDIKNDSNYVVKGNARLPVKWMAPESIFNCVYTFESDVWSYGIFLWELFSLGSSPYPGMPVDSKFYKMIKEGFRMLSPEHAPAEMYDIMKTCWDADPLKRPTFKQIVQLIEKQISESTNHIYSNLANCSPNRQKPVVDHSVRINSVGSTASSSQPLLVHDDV

With `Cc1nc(-c2ccc(C)c(NC(=O)c3cnn4cc(-c5ccn(C)n5)ccc34)c2)no1` [Compound I-535, 6-(1-methyl-1H-pyrazol-3-yl)-N-(2-methyl-5-(5-methyl-1,2,4-oxadiazol-3-yl)phenyl)pyrazolo[1,5-a]pyridine-3-carboxamide], the IC50 is no more than 50 nM.

`Cc1ccc(-c2ncon2)cc1NC(=O)c1cnc2cc(N(C)C)ccn12` [Compound I-718]: the IC50 was no more than 50 nM.

As to `Cc1ccc(-c2noc([C@H]3C[C@@H]3F)n2)cc1NC(=O)c1cnc2cc(COCC3(O)CC3)ccn12` [Compound I-622, N-(5-(5-((1R,2S)-2-fluorocyclopropyl)-1,2,4-oxadiazol-3-yl)-2-methylphenyl)-7-(((1-hydroxycyclopropyl)methoxy)methyl)imidazo[1,2-a]pyridine-3-carboxamide], the IC50 was no more than 50 nM.

For the molecule `Cc1ccc(-c2noc([C@H]3C[C@@H]3F)n2)cc1NC(=O)c1cnc2ccc(COCC(C)(C)O)cn12` [Compound I-455, N-[5-[5-[(1R,2S)-2-fluorocyclopropyl]-1,2,4-oxadiazol-3-yl]-2-methyl-phenyl]-6-[(2-hydroxy-2-methyl-propoxy)methyl]imidazo[1,2-a]pyridine-3-carboxamide], the IC50 is no more than 50 nM.

On to `CNCCOCc1ccn2c(C(=O)Nc3cc(-c4noc(C[C@H](O)C(F)F)n4)ccc3C)cnc2c1` [Compound I-593], for which the IC50 is 50 to 500 nM.

Turning to `CCc1nc(-c2ccc(C)c(NC(=O)c3cnc4cc(-c5cscn5)ccn34)c2)no1` [Compound I-720], the IC50 was no more than 50 nM.

For the molecule `COCC(O)c1nc(-c2ccc(C)c(NC(=O)c3cnc4cc(C)ccn34)c2)no1` (centres unmarked) [Compound I-608], the IC50 fell in the range of 50 to 500 nM.

Turning to `Cc1ccc(-c2noc(C[C@H](O)C(F)F)n2)cc1NC(=O)c1cnc2cc(COCc3nn[nH]n3)ccn12` [Compound I-597, (S)-7-(((2H-tetrazol-5-yl)methoxy)methyl)-N-(5-(5-(3,3-difluoro-2-hydroxypropyl)-1,2,4-oxadiazol-3-yl)-2-methylphenyl)imidazo[1,2-a]pyridine-3-carboxamide], the IC50 is no more than 50 nM.

In the case of `COc1ccn2c(C(=O)Nc3cc(-c4noc(N5CC(F)(F)C5)n4)ccc3C)cnc2c1` [Compound I-603, N-(5-(5-(3,3-difluoroazetidin-1-yl)-1,2,4-oxadiazol-3-yl)-2-methylphenyl)-7-methoxyimidazo[1,2-a]pyridine-3-carboxamide], the IC50 is no more than 50 nM.

Take `Cc1ccc(-c2ncon2)cc1NC(=O)c1cnc2cc(-c3ccn(C)n3)ccn12` [Compound I-684]: the IC50 is no more than 50 nM.

Take `Cc1ccc(-c2noc(C3CC(O)C3)n2)cc1NC(=O)c1cnc2cc(-c3ccn(C)n3)ccn12` (centres unmarked) [Compound I-727]: the IC50 is no more than 50 nM.

Take `Cc1ccc(-c2noc(C[C@H](O)C(F)F)n2)cc1NC(=O)c1cnc2cc(OCC(C)O)ccn12` (stereo partly drawn) [Compound I-571, N-(5-(5-((S)-3,3-difluoro-2-hydroxypropyl)-1,2,4-oxadiazol-3-yl)-2-methylphenyl)-7-(2-hydroxypropoxy)imidazo[1,2-a]pyridine-3-carboxamide]: the 50% inhibitory concentration (IC50) is no more than 50 nM.

Take `Cc1ccc(-c2noc([C@@H]3CC4(CC4)CN3)n2)cc1NC(=O)c1cnc2cc(Cl)ccn12` [Compound I-627, (S)—N-(5-(5-(5-azaspiro[2.4]heptan-6-yl)-1,2,4-oxadiazol-3-yl)-2-methylphenyl)-7-chloroimidazo[1,2-a]pyridine-3-carboxamide]: the IC50 was no more than 50 nM.

Take `Cc1ccc(-c2noc([C@H]3C[C@@H]3F)n2)cc1NC(=O)c1cnc2cc(C(C)(C)CO)ccn12` [Compound I-464]: the IC50 was in the range of 50 to 500 nM.

For `Cc1ccc(-c2noc(-c3cccnc3)n2)cc1NC(=O)c1cnc2cc(COCCO)ccn12` [Compound I-708], the IC50 was in the range of 50 to 500 nM.

For the molecule `Cc1ccc(-c2noc([C@H]3C[C@@H]3F)n2)cc1NC(=O)c1cnc2cc(COC[C@@H](O)C(F)F)ccn12` [Compound I-500, 7-(((R)-3,3-difluoro-2-hydroxypropoxy)methyl)-N-(5-(5-((1R,2S)-2-fluorocyclopropyl)-1,2,4-oxadiazol-3-yl)-2-methylphenyl)imidazo[1,2-a]pyridine-3-carboxamide], the IC50 was no more than 50 nM.

In the case of `COc1ccn2c(C(=O)Nc3cc(-c4noc(CC5CCCO5)n4)ccc3C)cnc2c1` (centres unmarked) [Compound I-582, 7-methoxy-N-(2-methyl-5-(5-((tetrahydrofuran-2-yl)methyl)-1,2,4-oxadiazol-3-yl)phenyl)imidazo[1,2-a]pyridine-3-carboxamide], the IC50 was no more than 50 nM.

Regarding `Cc1ccc(-c2noc(-c3cccnc3)n2)cc1NC(=O)c1cnc2ccccn12` [Compound I-738], the IC50 lay in the range of 50 to 500 nM.

`Cc1ccc(-c2noc([C@H]3C[C@@H](N)C3)n2)cc1NC(=O)c1cnc2cc(Cl)ccn12` [Compound I-623]: the IC50 was 500 to 5000 nM.

As to `Cc1ccc(-c2noc(CC(C)O)n2)cc1NC(=O)c1cnc2cc(F)ccn12` (centres unmarked) [Compound I-606], the half-inhibitory concentration (IC50) is 50 to 500 nM.

Turning to `Cc1ccc(-c2noc(C[C@H](O)C(F)F)n2)cc1NC(=O)c1cnc2ccc(-c3cscn3)cn12` [Compound I-560, (S)—N-(5-(5-(3,3-difluoro-2-hydroxypropyl)-1,2,4-oxadiazol-3-yl)-2-methylphenyl)-6-(thiazol-4-yl)imidazo[1,2-a]pyridine-3-carboxamide], the IC50 is no more than 50 nM.

On to `CCOc1ccn2c(C(=O)Nc3cc(-c4noc(C[C@H](O)C(F)F)n4)ccc3C)cnc2c1` [Compound I-566, (S)—N-(5-(5-(3,3-difluoro-2-hydroxypropyl)-1,2,4-oxadiazol-3-yl)-2-methylphenyl)-7-ethoxyimidazo[1,2-a]pyridine-3-carboxamide], for which the IC50 is no more than 50 nM.

For the molecule `Cc1ccc(-c2ncon2)cc1NC(=O)c1cnc2cc(-c3csc(CO)n3)ccn12` [Compound I-685], the IC50 is no more than 50 nM.

Regarding `Cc1ccc(-c2noc([C@@H]3CC4(CC4)CN3)n2)cc1NC(=O)c1cnc2cc(-c3cscn3)ccn12` [Compound I-635, N-[5-[5-[(6S)-5-azaspiro[2.4]heptan-6-yl]-1,2,4-oxadiazol-3-yl]-2-methyl-phenyl]-7-thiazol-4-yl-imidazo[1,2-a]pyridine-3-carboxamide], the IC50 was no more than 50 nM.

As to `Cc1ccc(-c2noc([C@H]3C[C@@H]3F)n2)cc1NC(=O)c1cnc2cc3c(cn12)COC3C` (single isomer, unassigned) [Compound I-470, (6S*)—N-[5-[5-[(1R,2S)-2-fluorocyclopropyl]-1,2,4-oxadiazol-3-yl]-2-methyl-phenyl]-6-methyl-5-oxa-1,10-diazatricyclo[7.3.0.03,7]dodeca-2,7,9,11-tetraene-12-carboxamide], the IC50 was no more than 50 nM.

Turning to `Cc1ccc(-c2noc(-c3ccccn3)n2)cc1NC(=O)c1cnc2cc(COCC(C)(C)O)ccn12` [Compound I-573], the IC50 lay in the range of 50 to 500 nM.

For `Cc1ccc(-c2noc(CC(O)c3ccccc3)n2)cc1NC(=O)c1cnc2ccccn12` (centres unmarked) [Compound I-517, N-(5-(5-(2-hydroxy-2-phenylethyl)-1,2,4-oxadiazol-3-yl)-2-methylphenyl)imidazo[1,2-a]pyridine-3-carboxamide], the IC50 is no more than 50 nM.

Regarding `Cc1ccc(-c2noc(CC(O)C3COC3)n2)cc1NC(=O)c1cnc2ccccn12` (centres unmarked) [Compound I-591], the IC50 fell in the range of 50 to 500 nM.

As to `Cc1ccn2c(C(=O)Nc3cc(-c4noc(CC5CCCO5)n4)ccc3C)cnc2c1` (centres unmarked) [Compound I-553, 7-methyl-N-(2-methyl-5-(5-((tetrahydrofuran-2-yl)methyl)-1,2,4-oxadiazol-3-yl)phenyl)imidazo[1,2-a]pyridine-3-carboxamide], the IC50 was no more than 50 nM.

`Cc1ccc(-c2noc(N3CC(F)(F)C3)n2)nc1NC(=O)c1cnc2ccccn12` [Compound I-711]: the half-maximal inhibitory concentration (IC50) was 50 to 500 nM.

As to `Cc1nc(-c2ccc(C)c(NC(=O)c3cnc4ccccn34)c2)no1` [Compound I-564], the IC50 lay in the range of 50 to 500 nM.

On to `Cc1ccc(-c2noc([C@H]3C[C@@H]3F)n2)cc1NC(=O)c1cnn2ccc(F)cc12` [Compound I-496, 5-fluoro-N-[5-[5-[(1R,2S)-2-fluorocyclopropyl]-1,2,4-oxadiazol-3-yl]-2-methylphenyl]pyrazolo[1,5-a]pyridine-3-carboxamide], for which the IC50 was no more than 50 nM.

Take `COc1ccn2c(C(=O)Nc3cc(-c4noc(CC5COC5)n4)ccc3C)cnc2c1` [Compound I-633, 7-Methoxy-N-[2-methyl-5-[5-(oxetan-3-ylmethyl)-1,2,4-oxadiazol-3-yl]phenyl]imidazo[1,2-a]pyridine-3-carboxamide]: the IC50 was no more than 50 nM.

Take `Cc1nc(-c2ccc(C)c(NC(=O)c3cnc4cc(-c5csc(CO)n5)ccn34)c2)no1` [Compound I-594, 7-(2-(hydroxymethyl)thiazol-4-yl)-N-(2-methyl-5-(5-methyl-1,2,4-oxadiazol-3-yl)phenyl)imidazo[1,2-a]pyridine-3-carboxamide]: the IC50 was no more than 50 nM.

For the molecule `Cc1ccc(-c2noc(CC3CCCO3)n2)cc1NC(=O)c1cnc2cc(Cl)ccn12` (centres unmarked) [Compound I-615, 7-Chloro-N-[2-methyl-5-[5-(tetrahydrofuran-2-ylmethyl)-1,2,4-oxadiazol-3-yl]phenyl]imidazo[1,2-a]pyridine-3-carboxamide], the IC50 is no more than 50 nM.

For the molecule `Cc1ccc(-c2noc([C@H]3C[C@@H]3F)n2)cc1NC(=O)c1cnc2cc(C3CC(O)C3)ccn12` (stereo partly drawn) [Compound I-478, N-[5-[5-[(1R,2S)-2-fluorocyclopropyl]-1,2,4-oxadiazol-3-yl]-2-methyl-phenyl]-7-(3-hydroxycyclobutyl)imidazo[1,2-a]pyridine-3-carboxamide], the half-inhibitory concentration (IC50) is no more than 50 nM.

Consider `Cc1ccc(-c2noc(C(C)O)n2)cc1NC(=O)c1cnn2cc(-c3ccn(C)n3)ccc12` (centres unmarked) [Compound I-730], for which the IC50 is no more than 50 nM.

As for `Cc1ccc(-c2noc(C[C@H](O)C(F)F)n2)cc1NC(=O)c1cnc2cc(-c3cscn3)ccn12` [Compound I-554, (S)—N-(5-(5-(3,3-difluoro-2-hydroxypropyl)-1,2,4-oxadiazol-3-yl)-2-methylphenyl)-7-(thiazol-4-yl)imidazo[1,2-a]pyridine-3-carboxamide], the IC50 was no more than 50 nM.

As a reminder, the IC50 is the concentration needed to halve the response being measured.
